Test results reported in patent publication US12569497B2, “Use of HCN inhibitors for treatment of cancer” (The University of Hong Kong, priority 2017, dated 2026).
Counter-ions that a name gives are not always drawn.

What was measured:
[1] = cited from earlier work
[2] = tested on: breast cancer cell line MCF7; experiment: MTT proliferation assay, MCF7; format: cell-based; details: 200 μM, 5 days, vs double distilled water
Procedure: (§1) Ivabradine was purchased (Sigma). The powder was dissolved into double-distilled water.
(§2) MCF10A, MCF7, ZR75-1, BT474, MDA-MB-231, MDA-MB-453, Ishikawa, SW1116, PLC/PRF/5, MHCC-97L and Huh7 cells were seeded in 96-well plate with cell density 5000 cells per well. 200 μM of Ivabradine was used for cell treatment while double distilled water was used as control. […] MTT solution was prepared at 5 mg/mL in PBS and was filtered through a 0.2 μm filter. Then, 50 μl of MTT plus 200 μl of culture medium were added into each well. Cells were incubated for 4 hours at 37° C. with 5% CO2, 95% air and complete humidity. After 4 hours, the medium with MTT solution was removed and replaced with 200 μl of isopropanol with 4 mmol/L HCl and 0.1% NP-40. The 96-well plate was further incubated for 5 min at room temperature. The optical density of the wells was determined using a plate reader at a test wavelength of 570 nm and a reference wavelength of 630 nm.

[3] = tested on: liver cancer cell line PLC/PRF/5; experiment: MTT proliferation assay, PLC/PRF/5; format: cell-based; details: 200 μM, 5 days, vs double distilled water
Procedure: as §1, §2

MDA-MB-453 xenografts = experiment: tumor xenograft growth in nude mice, MDA-MB-453; format: in vivo, female nude mice; details: MDA-MB-453 xenograft, 15 mg kg^−1 day^−1 IP, 18 days
Procedure: (§3) The effects of Ivabradine suppression on triple negative breast cancer was investigated in a female nude mouse model with MDA-MB-231 and MDA-MB-453 cells. The cell lines mixed with Matrigel (BD Biosciences) at the ratio of 1:1 were inoculated into the abdominal mammary fat pad of the 5 to 6 week old female nude mice. When the tumors were palpable, the mice were randomized into two groups, each consisting of eight animals. Each group was treated with Ivabradine (15 mg/kg day-1) or water. All reagents were administered via intraperitoneal delivery. Tumor sizes were measured by caliper and tumor volume was calculated as (length*width*width)/2. This protocol has been reviewed and approved by Committee on the Use of Live Animals in Teaching and Research (CULATR), the University of Hong Kong.
(§4) Tumor growth was compared between treatment and control groups (P<0.001). After 15 days (MDA-MB-231) or 18 days (MDA-MB-453) of the treatment, tumors were isolated and recorded by photo.

[4] = tested on: breast cancer cell line BT474; experiment: MTT proliferation assay, BT474; format: cell-based; details: 200 μM, 5 days, vs double distilled water
Procedure: as §1, §2

[5] = tested on: liver cancer cell line MHCC-97L; experiment: MTT proliferation assay, MHCC-97L; format: cell-based; details: 200 μM, 5 days, vs double distilled water
Procedure: as §1, §2

[6] = tested on: TNBC cell line MDA-MB-453; experiment: MTT proliferation assay, MDA-MB-453; format: cell-based; details: 200 μM, 5 days, vs double distilled water
Procedure: as §1, §2

[7] = tested on: colon cancer cell line SW1116; experiment: MTT proliferation assay, SW1116; format: cell-based; details: 200 μM, 3 days, vs double distilled water
Procedure: as §1
MCF10A, MCF7, ZR75-1, BT474, MDA-MB-231, MDA-MB-453, Ishikawa, SW1116, PLC/PRF/5, MHCC-97L and Huh7 cells were seeded in 96-well plate with cell density 5000 cells per well. 200 μM of Ivabradine was used for cell treatment while double distilled water was used as control. 3-(4,5-dimethyl-2-thiazolyl)-2,5-diphenyl-2H-tetrazolium bromide (MTT) assay was performed 24, 48, 72 and 96 hours after Ivabradine treatment. MTT solution was prepared at 5 mg/mL in PBS and was filtered through a 0.2 μm filter. Then, 50 μl of MTT plus 200 μl of culture medium were added into each well. Cells were incubated for 4 hours at 37° C. with 5% CO2, 95% air and complete humidity. After 4 hours, the medium with MTT solution was removed and replaced with 200 μl of isopropanol with 4 mmol/L HCl and 0.1% NP-40. The 96-well plate was further incubated for 5 min at room temperature. The optical density of the wells was determined using a plate reader at a test wavelength of 570 nm and a reference wavelength of 630 nm.

[8] = tested on: MDA-MB-231 breast cancer cells; experiment: cell cycle flow cytometry (propidium iodide), MDA-MB-231; format: cell-based; details: 200 μM, 72 hours
(Ishikawa) = experiment: clonogenic assay, Ishikawa; format: cell-based; details: 200 μM, 2 weeks
Procedure: (§5) For the clonogenic assay, 2000 cells were seeded in 6-well plate. 200 μM of Ivabradine was used to treat the cells while double distilled water was used as negative control. The cells were treated for 14 days. The cells were washed with 1 mL of 1×PBS and then fixed by incubating with 4% paraformaldehyde in PBS for 15 minutes at room temperature. The cells were washed with 1 mL of 1×PBS. The cell colonies were visualized by staining with 0.5% crystal violet (Sigma) solution for 1 hour at room temperature. The cells were washed with tap water. The number of cells equal or greater than 50 cells would be regarded as one colony. Number of colonies was counted. After the counting, stain was extracted by incubating with 500 μL of 10% acetic acid solution. The optical density at 650 nm was measured.

[9] = tested on: BT-474 breast cancer cells; experiment: cell cycle flow cytometry (propidium iodide), BT-474; format: cell-based; details: 200 μM, 24 hours
[10] = tested on: liver cancer cell line Huh7; experiment: MTT proliferation assay, Huh7; format: cell-based; details: 200 μM, 5 days, vs double distilled water
Procedure: as §1, §2

[11] = tested on: cancer cell line Ishikawa; experiment: MTT proliferation assay, Ishikawa; format: cell-based; details: 200 μM, 7 days, vs double distilled water
Procedure: as §1, §2

[12] = tested on: colon cancer cells (SW1116); experiment: clonogenic assay, SW1116; format: cell-based; details: 200 μM, 2 weeks
Procedure: as §5

[13] = tested on: MDA-MB-231 breast cancer cells; experiment: apoptosis by flow cytometry (APO-BrdU TUNEL), MDA-MB-231; format: cell-based; details: 200 μM, 72 hours
Procedure: (§6) Cells were seeded in 10 cm dish. When the confluence of cells reached 80%, the cells were treated with 200 μM of Ivabradine or double distilled water for 72 hours. The cells were washed with 10 mL of 1×PBS. The cells were detached from the dish by treating the cells with 1 mL of Trypsin (Gibco). The cell suspension was transferred to 15 mL centrifuge tube and subjected to centrifugation at 300×g for 5 minutes at room temperature. The cell pellet was kept. The cell pellet was washed with 5 mL of 1×PBS. The cell suspension was centrifuged at 300×g for 5 minutes at room temperature. The cell pellet was resuspended in 5 mL of 4% paraformaldehyde in PBS and place on ice for 15 minutes. The cell suspension was centrifuged at 300×g for 5 minutes. The cell pellet was washed with 5 mL of 1×PBS. After the washing, the cell suspension was centrifuged at 300×g for 5 minutes at room temperature. The cell pellet was resuspended in 0.5 mL of 1×PBS. The cell suspension was added to 5 mL of ice-cold 70% ethanol for 30 minutes. APO-BrdU TUNEL Assay Kit (ThermoFisher, Cat: A23210) was used. For each cell pellet, DNA labelling solution was prepared by mixing 10 μL of reaction buffer, 0.75 μL of TdT enzyme, 8 μL of BrdUTP and 31.25 μL of double distilled water. The cell pellet was resuspended in 50 μL of the DNA-labeling solution. […] The cells were analysed by BD LSR Fortessa Analyzer.

[14] = tested on: MDA-MB-453 breast cancer cells; experiment: cell cycle flow cytometry (propidium iodide), MDA-MB-453; format: cell-based; details: 200 μM, 72 hours
Procedure: as §6, with “Analyzer. […]” for “Analyzer.”

[15] = tested on: TNBC cell line MDA-MB-231; experiment: MTT proliferation assay, MDA-MB-231; format: cell-based; details: 200 μM, 5 days, vs double distilled water
Procedure: as §1, §2

[16] = tested on: liver cancer cells MHCC-97L; experiment: clonogenic assay, MHCC-97L; format: cell-based; details: 200 μM, 2 weeks
Procedure: as §5

MDA-MB-231 xenografts = experiment: tumor xenograft growth in nude mice, MDA-MB-231; format: in vivo, female nude mice; details: MDA-MB-231 xenograft, 15 mg kg^−1 day^−1 IP, 15 days
Procedure: as §3, §4

[17] = tested on: MDA-MB-453 breast cancer cells; experiment: apoptosis by flow cytometry (APO-BrdU TUNEL), MDA-MB-453; format: cell-based; details: 200 μM, 72 hours
Procedure: as §6

[18] = tested on: BT-474 breast cancer cells; experiment: apoptosis by flow cytometry (APO-BrdU TUNEL), BT-474; format: cell-based; details: 200 μM, 24 hours
Procedure: as §6, with “When the confluence of cells reached 80%, the cells were treated with 200 μM of Ivabradine or double distilled water for 72 hours.” left out, “solution. The cell suspension was incubated at 37° C. for 1 hour.” for “solution.”

[19] = tested on: liver cancer cells PLC/PRF/5; experiment: clonogenic assay, PLC/PRF/5; format: cell-based; details: 200 μM, 2 weeks
Procedure: as §5

[20] = tested on: breast cancer cells (MCF7, MDA-MB-231, MDA-MB-453, and BT-474); experiment: clonogenic assay, breast cancer cells; format: cell-based; details: 200 μM, 2 weeks
Procedure: as §5

COc1cc2c(cc1OC)CC(=O)N(CCCN(C)C[C@H]1Cc3cc(OC)c(OC)cc31)CC2 [Ivabradine hydrochloride salt]
solubility in water [1]: over 5 mg/ml

COc1cc2c(cc1OC)CC(=O)N(CCCN(C)C[C@H]1Cc3cc(OC)c(OC)cc31)CC2 [Ivabradine, 1.7,8-dimethoxy-3-(3-(((4,5-dimethoxybenzocyclobutan-1-yl)methyl)methylamino)propyl)-1,3,4,5-tetrahydro-2H-benzazepin-2-one]
proliferation (MTT) [2]: significantly reduced the proliferation | proliferation (MTT) [3]: significantly reduced the proliferation | tumor growth (MDA-MB-453 xenografts): significantly suppress tumor growth | proliferation (MTT) [4]: significantly reduced the proliferation | proliferation (MTT) [5]: significantly reduced the proliferation | proliferation (MTT) [6]: significantly reduced the proliferation | proliferation (MTT) [7]: significantly reduced the proliferation | cell cycle arrest [8]: induced sub-G1 cell cycle arrest | colony formation and proliferation (clonogenic assay) ((Ishikawa)): suppression of ovarian cancer colony formation and proliferation | cell cycle arrest [9]: induced sub-G1 cell cycle arrest | proliferation (MTT) [10]: significantly reduced the proliferation | proliferation (MTT) [11]: significantly reduced the proliferation | colony formation and proliferation (clonogenic assay) [12]: suppression of colon cancer colony formation and proliferation | apoptosis [13]: significantly induces apoptosis | cell cycle arrest [14]: induced sub-G1 cell cycle arrest | proliferation (MTT) [15]: significantly reduced the proliferation | colony formation and proliferation (clonogenic assay) [16]: suppression of liver cancer colony formation and proliferation | tumor growth (MDA-MB-231 xenografts): significantly suppress tumor growth | apoptosis [17]: significantly induces apoptosis | solubility in water [1]: about 0.02 mg/ml | apoptosis [18]: significantly induces apoptosis | colony formation and proliferation (clonogenic assay) [19]: suppression of liver cancer colony formation and proliferation | colony formation and proliferation (clonogenic assay) [20]: suppression of breast cancer colony formation and proliferation
